Source: patent US20260167620A1, “MULTIFUNCTIONAL COMPOUND CAPABLE OF DEGRADING BTK KINASE, AND COMPOSITION AND USE” (HANGZHOU HEALZEN THERAPEUTICS CO., LTD., priority 2021, published 2026)

Columns and labels:
Type in all cases: cell-based
BTK = molecular target: T1, BTK (Homo sapiens, UniProt Q06187); test: BTK degradation activity test in Mino cells (Westernblot or Elisa); conditions: 24-72 h incubation
T1 construct: endogenous in cells; host or cells: Mino cells
Description: The Mino cell line cells are 0.5˜1 million/well in 6-well plates. The compounds are diluted to different concentrations, added to the plate, and after 24-72 h of incubation, the cells are collected. After the cells were lysed, the total protein concentration in each well was determined with a BCA kit. The amount of BTK is determined using the Westernblot or Elisa method.

OCI-LY10 cells = test: Inhibitory activity on OCI-LY10 cell proliferation (MTS); conditions: Homo sapiens, 72 h or 168 h
Description: (§1) The anti-tumor efficacy of the compounds was tested by measuring their inhibitory effects on OCI-LY10 and Mino cell proliferation. OCI-LY10 and Mino cells were cultured in RPM-1640 medium containing […] fetal calf serum. OCI-LY10 and Mino cells were digested, inoculated in a 96-well plate at a cell concentration of 10000 cells/well, and incubated overnight at 37° C., 5% CO2. Compounds of different concentrations (1000 nM, 4-fold dilution, 8 points) were added to the 96-well plate and incubated for 72 h or 168 h at 37° C. and […], and then 20 μL of MTS was added to each well. After incubation for 2 h, 25 μl of 10% SDS was added to each well to terminate the reaction. The absorbance at 490 nm and 650 nm were measured with a microplate reader. IC50 was calculated using GraphPad Prism 5.0.

Mino cells = test: Inhibitory activity on Mino cell proliferation (MTS); conditions: Homo sapiens, 72 h or 168 h
Description: as §1

T1 sequence (Q06187 whole entry): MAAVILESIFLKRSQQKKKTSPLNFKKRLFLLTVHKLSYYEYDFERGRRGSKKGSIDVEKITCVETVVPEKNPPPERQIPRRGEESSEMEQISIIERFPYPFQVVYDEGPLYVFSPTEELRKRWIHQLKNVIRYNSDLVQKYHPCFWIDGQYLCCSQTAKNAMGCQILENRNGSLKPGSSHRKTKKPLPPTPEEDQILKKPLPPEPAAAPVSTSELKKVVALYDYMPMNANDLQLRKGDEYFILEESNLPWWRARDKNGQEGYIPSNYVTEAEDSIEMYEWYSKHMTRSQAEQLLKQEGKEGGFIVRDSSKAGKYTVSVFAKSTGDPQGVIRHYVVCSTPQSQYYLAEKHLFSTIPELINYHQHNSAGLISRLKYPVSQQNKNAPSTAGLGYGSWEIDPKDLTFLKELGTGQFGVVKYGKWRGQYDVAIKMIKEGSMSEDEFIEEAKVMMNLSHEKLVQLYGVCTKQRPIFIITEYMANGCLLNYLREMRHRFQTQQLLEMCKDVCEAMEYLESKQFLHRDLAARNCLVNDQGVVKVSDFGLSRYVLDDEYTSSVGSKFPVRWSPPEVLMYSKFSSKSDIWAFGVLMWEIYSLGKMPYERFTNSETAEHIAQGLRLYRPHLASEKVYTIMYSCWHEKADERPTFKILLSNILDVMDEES

DC50 (BTK) [nM]	IC50 (OCI-LY10 cells) [nM]	SMILES	IC50 (Mino cells) [nM]
< 10	–	NC(=O)c1nnc(N2CCCCC2)nc1Nc1ccc(C2CCN(CC3CCN(c4ccc5c(=O)n(C6CCC(=O)NC6=O)ccc5c4)C3)CC2)cc1 (stereo not drawn) [Compound 012, 5-((4-(1-((1-(2-(2,6-dioxopiperidin-3-yl)-1-oxo-1,2-dihydroisoquinolin-6-yl)pyrrolidin-3-yl)methyl)piperidin-4-yl)phenyl)amino)-3-(piperidin-1-yl)-1,2,4-triazine-6-carboxamide]	1.22
< 10	–	NC(=O)c1cnc(N2CCCCC2)nc1Nc1ccc(C2CCN(CC3CCN(c4ccc5c(c4)C(=O)N(C4CCC(=O)NC4=O)C5=O)C3)CC2)cc1 (stereo not drawn) [Compound 033, 4-((4-(1-((1-(2-(2,6-dioxopiperidin-3-yl)-1,3-dioxoisoindolin-5-yl)pyrrolidin-3-yl)methyl)piperidin-4-yl)phenyl)amino)-2-(piperidin-1-yl) pyrimidine-5-carboxamide]	9.1
< 10	–	Cn1c(=O)n(C2CCC(=O)NC2=O)c2ccc(N3CCC(CN4CCC(c5ccc(Nc6nc(N7CCCCC7)nnc6C(N)=O)cc5)CC4)C3)cc21 (stereo not drawn) [Compound 011, 5-((4-(1-((1-(1-(2,6-dioxopiperidin-3-yl)-3-methyl-2-oxo-2,3-dihydro-1H-benzo[d]imidazol-5-yl)pyrrolidin-3-yl)methyl)piperidin-4-yl)phenyl)amino)-3-(piperidin-1-yl)-1,2,4-triazine-6-carboxamide]	4.2
< 10	0.41	NC(=O)c1nnc(N2CCCCC2)nc1Nc1cnc(C2CCN(CC3CCN(c4ccc5c(c4)C(=O)N(C4CCC(=O)NC4=O)C5=O)C3)CC2)nc1 (stereo not drawn) [Compound 005, 5-((2-(1-((1-(2-(2,6-dioxopiperidin-3-yl)-1,3-dioxoisoindolin-5-yl)pyrrolidin-3-yl)methyl)piperidin-4-yl)pyrimidin-5-yl)amino)-3-(piperidin-1-yl)-1,2,4-triazine-6-carboxamide]	2.47
< 10	0.18	NC(=O)c1nnc(N2CCCCC2)nc1Nc1ccc(C2CCN(CC3CCN(c4ccc5c(c4)C(=O)N(C4CCC(=O)NC4=O)C5=O)C3)CC2)nn1 (stereo not drawn) [Compound 004, 5-((6-(1-((1-(2-(2,6-dioxopiperidin-3-yl)-1,3-dioxoisoindolin-5-yl)pyrrolidin-3-yl)methyl)piperidin-4-yl)pyridazin-3-yl)amino)-3-(piperidin-1-yl)-1,2,4-triazine-6-carboxamide]	1.15
< 10	–	NC(=O)c1nnc(N2CCCCC2)nc1Nc1ccc(C2CCN(CC3CCN(c4ccc5c(c4)CCN(C4CCC(=O)NC4=O)C5=O)C3)CC2)cc1 (stereo not drawn) [Compound 013, 5-((4-(1-((1-(2-(2,6-dioxopiperidin-3-yl)-1-oxo-1,2,3,4-tetrahydroisoquinolin-6-yl)pyrrolidin-3-yl)methyl)piperidin-4-yl)phenyl)amino)-3-(piperidin-1-yl)-1,2,4-triazine-6-carboxamide]	3.37

The remaining lines, values behind:

SMILES	DC50 (BTK) [nM]	IC50 (OCI-LY10 cells) [nM]	IC50 (Mino cells) [nM]
NC(=O)c1nnc(N2CCCCC2)nc1Nc1ccc(N2CCC(CN3CCN(c4ccc(N5CCC(=O)NC5=O)cc4)CC3)CC2)nc1 [Compound 048, 5-((6-(4-((4-(4-(2,4-dioxotetrahydropyrimidin-1(2H)-yl)phenyl)piperazin-1-yl)methyl)piperidin-1-yl)pyridin-3-yl)amino)-3-(piperidin-1-yl)-1,2,4-triazine-6-carboxamide]	< 10	0.61	–
NC(=O)c1nnc(N2CCCCC2)nc1Nc1ccc(N2CCN(CC3CCN(c4ccc(NC5CCC(=O)NC5=O)c(F)c4)CC3)CC2)c(F)c1 (stereo not drawn) [Compound 088, 5-((4-(4-((1-(4-((2,6-dioxopiperidin-3-yl)amino)-3-fluorophenyl)piperidin-4-yl)methyl)piperazin-1-yl)-3-fluorophenyl)amino)-3-(piperidin-1-yl)-1,2,4-triazine-6-carboxamide]	< 10	0.66	–
NC(=O)c1nnc(N2CCCCC2)nc1Nc1ccc(N2CCN(CC3CCN(c4ccc(N5CCC(=O)NC5=O)c(F)c4)CC3)CC2)c(F)c1 [Compound 078, 5-((4-(4-((1-(4-(2,4-dioxotetrahydropyrimidin-1(2H)-yl)-3-fluorophenyl)piperidin-4-yl)methyl)piperazin-1-yl)-3-fluorophenyl)amino)-3-(piperidin-1-yl)-1,2,4-triazine-6-carboxamide]	< 10	0.7	–
NC(=O)c1nnc(N2CCCCC2)nc1Nc1ccc(N2CCN(CC3CCN(c4ccc(-c5ccc(=O)[nH]n5)cc4C(F)(F)F)CC3)CC2)c(F)c1 [Compound 087, 5-((3-fluoro-4-(4-((1-(4-(6-oxo-1,6-dihydropyridazin-3-yl)-2-(trifluoromethyl)phenyl)piperidin-4-yl)methyl)piperazin-1-yl)phenyl)amino)-3-(piperidin-1-yl)-1,2,4-triazine-6-carboxamide]	< 10	–	4.31
NC(=O)c1nnc(N2CCCCC2)nc1Nc1ccc(C2CCN(CC3CCN(c4ccc(NC5CCC(=O)NC5=O)cn4)C3)CC2)cc1 (stereo not drawn) [Compound 014, 5-((4-(1-((1-(5-((2,6-dioxopiperidin-3-yl)amino)pyridin-2-yl)pyrrolidin-3-yl)methyl)piperidin-4-yl)phenyl)amino)-3-(piperidin-1-yl)-1,2,4-triazine-6-carboxamide]	< 10	0.67	4.14
Cc1cc(N2CCN(CC3CCN(c4ccc(Nc5nc(N6CCCCC6)nnc5C(N)=O)cc4F)CC3)CC2)ccc1N1CCC(=O)NC1=O [Compound 076, 5-((4-(4-((4-(4-(2,4-dioxotetrahydropyrimidin-1(2H)-yl)-3-methylphenyl)piperazin-1-yl)methyl)piperidin-1-yl)-3-fluorophenyl)amino)-3-(piperidin-1-yl)-1,2,4-triazine-6-carboxamide]	< 10	1.09	–
Cc1cc(N2CCC(=O)NC2=O)ccc1N1CCC(CN2CCN(c3ccc(Nc4nc(N5CCCCC5)nnc4C(N)=O)cc3F)CC2)CC1 [Compound 084, 5-((4-(4-((1-(4-(2,4-dioxotetrahydropyrimidin-1(2H)-yl)-2-methylphenyl)piperidin-4-yl)methyl)piperazin-1-yl)-3-fluorophenyl)amino)-3-(piperidin-1-yl)-1,2,4-triazine-6-carboxamide]	< 10	–	3.3
NC(=O)c1nnc(N2CCCCC2)nc1Nc1ccc(N2CCC(CN3CCN(c4ccc(C5CCC(=O)NC5=O)cn4)CC3)CC2)c(F)c1 (stereo not drawn) [Compound 053, 5-((4-(4-((4-(5-(2,6-dioxopiperidin-3-yl)pyridin-2-yl)piperazin-1-yl)methyl)piperidin-1-yl)-3-fluorophenyl)amino)-3-(piperidin-1-yl)-1,2,4-triazine-6-carboxamide]	< 10	1.73	–
NC(=O)c1nnc(N2CCCCC2)nc1Nc1ccc(N2CCN(CC3CCN(c4ccc(N5CCC(=O)NC5=O)cc4F)CC3)CC2)c(F)c1 [Compound 086, 5-((4-(4-((1-(4-(2,4-dioxotetrahydropyrimidin-1(2H)-yl)-2-fluorophenyl)piperidin-4-yl)methyl)piperazin-1-yl)-3-fluorophenyl)amino)-3-(piperidin-1-yl)-1,2,4-triazine-6-carboxamide]	< 10	0.7	–
NC(=O)c1nnc(N2CCCCC2)nc1Nc1ccc(N2CCC(CN3CCN(c4ccc(N5CCC(=O)NC5=O)cc4)CC3)CC2)c(F)c1 [Compound 050, 5-((4-(4-((4-(4-(2,4-dioxotetrahydropyrimidin-1(2H)-yl)phenyl)piperazin-1-yl)methyl)piperidin-1-yl)-3-fluorophenyl)amino)-3-(piperidin-1-yl)-1,2,4-triazine-6-carboxamide]	< 10	–	6.05
Cc1cc(N2CCC(CN3CCN(c4ccc(Nc5nc(N6CCOCC6)nnc5C(N)=O)cc4F)CC3)CC2)ccc1N1CCC(=O)NC1=O [Compound 098, 5-((4-(4-((1-(4-(2,4-dioxotetrahydropyrimidin-1(2H)-yl)-3-methylphenyl)piperidin-4-yl)methyl)piperazin-1-yl)-3-fluorophenyl)amino)-3-morpholino-1,2,4-triazine-6-carboxamide]	< 10	–	3.11
NC(=O)c1nnc(N2CCCCC2)nc1Nc1ccc(N2CCN(CC3CCN(c4ccc(C(=O)NC5CCC(=O)NC5=O)c(F)c4)CC3)CC2)c(F)c1 (stereo not drawn) [Compound 083, 5-((4-(4-((1-(4-((2,6-dioxopiperidin-3-yl)carbamoyl)-3-fluorophenyl)piperidin-4-yl)methyl)piperazin-1-yl)-3-fluorophenyl)amino)-3-(piperidin-1-yl)-1,2,4-triazine-6-carboxamide]	< 10	1.24	–
COc1cc(N2CCC(CN3CCN(c4ccc(Nc5nc(N6CCCCC6)nnc5C(N)=O)cc4F)CC3)CC2)ccc1N1CCC(=O)NC1=O [Compound 082, 5-((4-(4-((1-(4-(2,4-dioxotetrahydropyrimidin-1(2H)-yl)-3-methoxyphenyl)piperidin-4-yl)methyl)piperazin-1-yl)-3-fluorophenyl)amino)-3-(piperidin-1-yl)-1,2,4-triazine-6-carboxamide]	< 10	0.64	2.3
